Results reported in patent US10744201B2, “Method for treating rheumatoid arthritis with a human IL-6 receptor antibody and methotrexate” (Chugai Seiyaku Kabushiki Kaisha, priority 2003, dated 2020).

Columns and labels:
[1] = tested on: patients with active rheumatoid arthritis; assay: Phase II trial of MRA alone and with methotrexate: ACR 20/50/70 improvement rates; format: in vivo, human; settings: for ACR 20 / ACR 50 / ACR 70: 16 weeks
Method: (§1) The efficacy, safety and tolerability of MRA were assessed.
Study design: a double-blind, randomized, parallel group study by central randomization method
ACR improvement criteria: The cases where among the following 7 items, the number of swelling joints and the number of pain joints are improved by 20% or more and improvement by 20% or more is observed in three out of the remaining five items are determined as 20% or more improvement in ACR criteria. Further, 50% and 70% improvement cases indicate the patient cases where the above 20% improved parts are improved by 50% and 70%, respectively.
(1) Number of swelling joints
(2) Number of tender joints
(3) Pain assessment by a patient
(4) Global assessment of disease activity by a patient
(5) Global disease activity by a physician
(6) Assessment of physical function by a patient

[2] = tested on: patients with active rheumatoid arthritis; assay: Phase II trial: reduction of swollen joint count; format: in vivo, human
Method: as §1
Reduction of Swollen Joint Count (Table 2)
The mean swollen joint count was similar across all the treatment groups at baseline.

[3] = tested on: patients with active rheumatoid arthritis; assay: Phase II trial: development of anti-MRA antibodies; format: in vivo, human; settings: 8 mg/kg treatment groups
Method: as §1
The development of anti-MRA antibodies was examined. None occurred at the 8 mg/kg treatment groups (monotherapy or combination with MTX). At 2 or 4 mg/kg treatment groups, the number of incidents was less in groups in combination with MTX than MRA monotherapy groups.

[4] = tested on: patients with active rheumatoid arthritis; assay: Phase II trial: safety (adverse events, laboratory data, infusion reaction); settings: for serious adverse events of which causal relationship could not be denied: hypersensitivity: no combination with MTX, after the 3rd or 4th MRA administration
Method: Subjects: Patients with rheumatoid arthritis diagnosed based on the 1987 disease classification of the American College of Rheumatology (ACR), of at least 6 months duration were enrolled.
Dosage and Administration: Seven groups: 0 mg/kg (placebo)+MTX, 2 mg/kg MRA+MTX, 4 mg/kg MRA+MTX, 8 mg/kg MRA+MTX, 2 mg/kg MRA+MTX placebo, 4 mg/kg MRA+MTX placebo, and 8 mg/kg MRA+MTX placebo. MRA or placebo administration is given by intravenous infusion, at 4-week intervals. MTX or MTX placebo administration is given orally, once weekly, at 10-25 mg/week.
Study Method: The assigned dose was administered by intravenous infusion, four times in total at 4-week intervals, and efficacy and safety were evaluated at 2-week intervals up to 16 weeks, and follow-up observation was done at 20 weeks. The primary endpoint for efficacy was the rate of ACR 20 at 16 weeks (4 weeks after the last dose). Secondary endpoints included rates of ACR 50 and ACR 70 at 16 weeks (4 weeks after the last dose).
Among 359 enrolled patients, the safety evaluation sets, the full analysis sets, and PPS (per protocol set) were 359, 354, and 307, respectively.
An infusion reaction was defined as an adverse event occurring within 24 hours of study drug administration.

[5] = 0 mg/kg (placebo)+MTX 10-25 mg/week oral (control group)
[6] = 2 mg/kg MRA i.v. at 4-week intervals x4, with MTX or MTX placebo 10-25 mg/week oral
[7] = 4 mg/kg MRA i.v. at 4-week intervals x4, with MTX or MTX placebo 10-25 mg/week oral
[8] = 8 mg/kg MRA i.v. at 4-week intervals x4, with MTX or MTX placebo 10-25 mg/week oral

Question: How did the “ACR 20” value [1, 5] turn out when `CN(Cc1cnc2nc(N)nc(N)c2n1)c1ccc(C(=O)N[C@@H](CCC(=O)O)C(=O)O)cc1` [MTX, methotrexate] was run?
Answer: The value was 40.8%.

Question: And the “ACR 50” value [1, 5]?
Answer: The value was 28.6%.

Question: And the “ACR 70” value [1, 5]?
Answer: The value was 16.3%.

Question: And the “Swollen joint count, Change from Baseline, Mean ± SD” value ([2]; MTX alone (MRA placebo), Week 16)?
Answer: Its value is −5.7 ± 6.1.

Question: “MRA: recombinant humanised anti-human interleukin-6 receptor monoclonal antibody of the IgG1 sub-class that inhibits the function of IL-6” was tested. Which “ACR 20” value [1, 6] did it give?
Answer: Its value is 30.8%.

Question: What about the “ACR 50” value [1, 6] of the same compound?
Answer: Its value is 5.8%.

Question: What about the “ACR 70” value [1, 6] of the same compound?
Answer: The value was 1.9%.

Question: And the “ACR 20” value [1, 7]?
Answer: The value was 61.1%.

Question: And the “ACR 50” value [1, 7]?
Answer: The value was 27.8%.

Question: What about the “ACR 70” value [1, 7] of the same compound?
Answer: The value was 5.6%.

Question: And the “ACR 20” value [1, 8]?
Answer: The value was 62.7%.

Question: What about the “ACR 50” value [1, 8] of the same compound?
Answer: The value was 41.2%.

Question: And the “ACR 70” value [1, 8]?
Answer: The value was 15.7%.

Question: What about the “dose dependency in ACR 20 improvement rate” value ([1]; 2, 4, 8 mg/kg MRA alone groups) of the same compound?
Answer: The value was “statistically significant dose dependency”.

Question: And the “dose dependent response for ACR50 and ACR70 improvement rate” value ([1]; 2, 4, 8 mg/kg MRA, alone and MTX-combined groups)?
Answer: Its value is “statistically significant dose dependent response”.

Question: And the “dose-response (overall result)” value ([1]; in vivo)?
Answer: The value was “clear dose-response”.

Question: What about the “effectiveness to treat patients with rheumatoid arthritis” value ([1]; in vivo) of the same compound?
Answer: Its value is “confirmed”.

Question: What about the “Swollen joint count, Change from Baseline, Mean ± SD” value ([2]; 2 mg/kg MRA, with MTX or MTX placebo, Week 16) of the same compound?
Answer: Its value is −4.5 ± 5.7.

Question: What about the “Swollen joint count, Change from Baseline, Mean ± SD” value ([2]; 4 mg/kg MRA, with MTX or MTX placebo, Week 16) of the same compound?
Answer: Its value is −5.8 ± 4.1.

Question: And the “Swollen joint count, mean difference (95% CI) to the MTX group” value ([2]; 8 mg/kg MRA group vs MTX group, Week 16)?
Answer: Its value is −2.31 (−4.07, −0.55).

Question: What about the “Swollen joint count, Change from Baseline, Mean ± SD” value ([2]; 8 mg/kg MRA, with MTX or MTX placebo, Week 16) of the same compound?
Answer: The value was −8.4 ± 4.6.

Question: And the “linear dose-relationship of reduction in swollen joint count” value ([2]; 2, 4, 8 mg/kg MRA groups, monotherapy p<0.001, combination p=0.004)?
Answer: Its value is “statistically significant linear dose-relationship”.

Question: What about the “development of anti-MRA antibodies” value [3] of the same compound?
Answer: The value was “None”.

Question: What about the “serious adverse events of which causal relationship could not be denied: hypersensitivity” value ([4]; 2 mg/kg MRA group) of the same compound?
Answer: Its value is “four patients of hypersensitivity”.

Question: And the “serious adverse events of which causal relationship could not be denied: hypersensitivity” value ([4]; 4 mg/kg MRA group)?
Answer: Its value is “one patient of hypersensitivity”.

Question: What about the “Atherogenic Index” value ([4]; MRA groups) of the same compound?
Answer: Its value is “no overall change”.

Question: And the “laboratory data relating to lipids (total cholesterol, HDL cholesterol and triglyceride)” value ([4]; MRA groups)?
Answer: Its value is “increase”.

Question: What about the “number of patients experiencing an infusion reaction (adverse event within 24 hours of study drug administration)” value ([4]; across treatment groups) of the same compound?
Answer: Its value is “possible inverse dose-response”.

Question: What about the “ALT and AST levels (hepatic functions)” value ([4]; equivalent to elevations observed in other patients with rheumatoid arthritis) of the same compound?
Answer: The value was “elevation”.

Question: And the “CRP and ESR (parameters for disease activity)” value ([4]; in a dose dependent manner)?
Answer: Its value is “decreases of CRP and ESR”.

Question: And the “hemoglobin (parameter for disease activity)” value ([4]; in a dose dependent manner)?
Answer: The value was “elevation of hemoglobin”.

Question: And the neutrophil count ([4]; in some patients)?
Answer: The neutrophil count was “Slight transient decrease”.

Question: What about the safety ([4]; in vivo) of the same compound?
Answer: Its safety is “confirmed”.
